Consider 30 compounds from patent US20230053688A1, “METHODS TO ALTER LATENCY IN EBV+ MALIGNANCIES” (Cornell University, priority 2020, published 2023).

Counter-ions that a name gives are not always drawn. Like-named read-outs stand apart in the source and are kept apart here.

The test concerns LMP1 expression in Kem I cells. Kind of test: microbe, parasite or virus in culture. In kind it is cell-based, EBV. Particulars: for fold induction at 2.5 µM: human gammaherpesvirus 4, 48 h.
[1] abbreviates: read-out: Average LMP1 Fold Increase, Kem I cells, 2.5 uM, 48 hours, average of replicates 1 and 2.
Where [2] appears, read: read-out: Replicate 1-LMP1 Fold Increase, Kem I cells, 2.5 uM, 48 hours, fold change in LMP1 transcript vs vehicle.
The mark [3] stands for this setting: read-out: Replicate 2-LMP1 Fold Increase, Kem I cells, 2.5 uM, 48 hours, fold change in LMP1 transcript vs vehicle.
Setting [4] is: Kem I cells, 2.5 uM, 48 hours, average of replicates 1 and 2.
The mark [5] stands for this setting: Kem I cells, 2.5 uM, 48 hours, fold change in LMP1 transcript vs vehicle.

As to `CC[C@H](C)C(=O)O[C@H]1C[C@@H](C)C=C2C=C[C@H](C)[C@H](CC[C@@H]3C[C@@H](O)CC(=O)O3)[C@H]21` [Lovastatin], the fold induction at 2.5 µM reads like this: under setting [1], 0.96; under setting [2], 0.34; under setting [3], 1.59.

Regarding `CC(C)CCNC(=O)[C@H](CC(C)C)NC(=O)[C@H]1O[C@@H]1C(=O)O` [Loxistatin Acid (E-64C)], under setting [4], the “Average LMP1 Fold Increase” value was found to be 0.55. Besides, under setting [5], the “Replicate 1-LMP1 Fold Increase” value turned out to be 0.62 and the “Replicate 2-LMP1 Fold Increase” value is 0.48.

Consider `C=CCn1c(=O)c2cnc(Nc3ccc(N4CCN(C)CC4)cc3)nc2n1-c1cccc(C(C)(C)O)n1` [MK-1775], for which the fold induction at 2.5 µM was found to be 5.22 under setting [1], 6.01 under setting [2] and 4.43 under setting [3].

For the compound `Cl.Cl.NC1(c2ccc(-c3nc4ccn5c(=O)[nH]nc5c4cc3-c3ccccc3)cc2)CCC1` [MK-2206 2HCl], the “Average LMP1 Fold Increase” value under setting [4] is given as 0.51. Under setting [5], the “Replicate 1-LMP1 Fold Increase” value is on record as 0.44 and the “Replicate 2-LMP1 Fold Increase” value is 0.59.

On to `C[C@](O)(COc1ccc(C#N)cc1)C(=O)Nc1ccc(C#N)c(C(F)(F)F)c1` [MK-2866 (GTx-024)], for which the “Average LMP1 Fold Increase” value under setting [4] was found to be 0.64. For the same compound, under setting [5], the “Replicate 1-LMP1 Fold Increase” value is 0.72 and the “Replicate 2-LMP1 Fold Increase” value amounted to 0.56.

Consider `O=C(O)Cn1nnc(-c2cc(N3CCC(Oc4cc(F)ccc4Br)CC3)no2)n1` [MK-8245], for which the fold induction at 2.5 µM runs as follows: under setting [1], 1.17; under setting [2], 1.51; under setting [3], 0.84.

On to `COc1ccc(CNCc2cccc3ccccc23)cc1.Cl` [ML133 HCl], for which the “Average LMP1 Fold Increase” value under setting [4] was 0.54. Under setting [5], the “Replicate 1-LMP1 Fold Increase” value is 0.42 and the “Replicate 2-LMP1 Fold Increase” value was found to be 0.67.

For the compound `CCCC(=O)Nc1cccc(NC(=O)c2ccccc2Br)c1` [ML161], under setting [4], the “Average LMP1 Fold Increase” value turned out to be 0.83. Under setting [5], the “Replicate 1-LMP1 Fold Increase” value stood at 1.11 and the “Replicate 2-LMP1 Fold Increase” value is listed as 0.54.

Turning to `COc1ccc(-c2cnc3c(-c4cccc5ncccc45)cnn3c2)cc1` [ML347], the “Average LMP1 Fold Increase” value under setting [4] worked out at 0.34. Further, under setting [5], the “Replicate 1-LMP1 Fold Increase” value was found to be 0.19 and the “Replicate 2-LMP1 Fold Increase” value was determined as 0.49.

As to `CC(C)C[C@H](NC(=O)CNC(=O)c1cc(Cl)ccc1Cl)B(O)O` [MLN2238], the fold induction at 2.5 µM was determined as 112 under setting [1], 86.8 under setting [2] and 138 under setting [3].

Take `O=C(O)c1ccc(Nc2ncc3c(n2)-c2ccc(Cl)cc2C(c2c(F)cccc2F)=NC3)cc1` [MLN8054]: the fold induction at 2.5 µM was found to be 0.37 under setting [1], 0.27 under setting [2] and 0.47 under setting [3].

As to `CCC(CC)(NC(=O)C(C)C)C(=O)N[C@@H](CCCN=C(N)N)C(=O)NC1(C(=O)NC(c2ccc(F)cc2)c2ccc(F)cc2)CCCC1` [MM-102], the “Average LMP1 Fold Increase” value under setting [4] worked out at 0.27. Under setting [5], the “Replicate 1-LMP1 Fold Increase” value was 0.27 and the “Replicate 2-LMP1 Fold Increase” value was determined as 0.27.

For the compound `S=C=Nc1cccc(NC(=S)NCCCCNC(=S)Nc2cccc(N=C=S)c2)c1` [MRS 2578], under setting [4], the “Average LMP1 Fold Increase” value was 0.47. Also, under setting [5], the “Replicate 1-LMP1 Fold Increase” value is given as 0.64 and the “Replicate 2-LMP1 Fold Increase” value amounted to 0.31.

Take `COc1cc(-n2c(=S)[nH]c3ccccc3c2=O)c(Cl)cc1Cl` [Mdivi-1]: the “Average LMP1 Fold Increase” value under setting [4] is 0.64. Besides, under setting [5], the “Replicate 1-LMP1 Fold Increase” value was determined as 0.51 and the “Replicate 2-LMP1 Fold Increase” value stood at 0.77.

As for `CC12CC3CC(C)(C1)CC(N)(C3)C2` [Memantine HCl], the fold induction at 2.5 µM by setting is: under setting [1], 0.42; under setting [2], 0.55; under setting [3], 0.3.

Regarding `Nc1nc(CC(=O)Nc2ccc(CCNC[C@H](O)c3ccccc3)cc2)cs1` [Mirabegron], the fold induction at 2.5 µM runs as follows: under setting [1], 0.75; under setting [2], 0.74; under setting [3], 0.76.

With `O=C(NCCN1CCOCC1)c1ccc(Cl)cc1` [Moclobemide (Ro 111163)], under setting [4], the “Average LMP1 Fold Increase” value was 0.55. Moreover, under setting [5], the “Replicate 1-LMP1 Fold Increase” value is given as 0.28 and the “Replicate 2-LMP1 Fold Increase” value turned out to be 0.81.

Regarding `Cc1ccccc1C(=O)Nc1ccc(C(=O)N2CCCC(N(C)C)c3ccccc32)cc1` (stereo not drawn) [Mozavaptan], the fold induction at 2.5 µM stood at 0.61 under setting [1], 0.32 under setting [2] and 0.9 under setting [3].

`FC(F)(F)c1ccc(/C=C/c2nc(COc3ccc(CCCCn4ccnn4)cc3)co2)cc1` [Mubritinib (TAK 165)]: the “Average LMP1 Fold Increase” value was 0.68, the “Replicate 1-LMP1 Fold Increase” value stood at 0.74 and the “Replicate 2-LMP1 Fold Increase” value was determined as 0.62.

Turning to `CCCCCCCCCCCCCCCCn1cc[n+](Cc2ccccc2)c1C.[I-]` [NH125], the “Average LMP1 Fold Increase” value under setting [4] amounted to 0.70. Under setting [5], the “Replicate 1-LMP1 Fold Increase” value is on record as 0.94 and the “Replicate 2-LMP1 Fold Increase” value stood at 0.46.

Regarding `Cc1cc(OCc2nnc(SC3CCCC3)n2-c2cccnc2)ccc1-c1ccc(S(C)(=O)=O)cc1` [NMS-873], the fold induction at 2.5 µM amounted to 1 under setting [1], 1.05 under setting [2] and 0.95 under setting [3].

For `CC(C)(Cc1ccc2ccccc2c1)NC[C@@H](O)COc1cccc(Cl)c1C#N` [NPS-2143], the “Average LMP1 Fold Increase” value under setting [4] is given as 0.74. Moreover, under setting [5], the “Replicate 1-LMP1 Fold Increase” value was found to be 0.87 and the “Replicate 2-LMP1 Fold Increase” value is given as 0.62.

For `Cc1ccc(S(=O)(=O)c2ccc([N+](=O)[O-])o2)cc1` [NSC697923], the “Average LMP1 Fold Increase” value under setting [4] was 0.09. Moreover, under setting [5], the “Replicate 1-LMP1 Fold Increase” value is reported as 0.10 and the “Replicate 2-LMP1 Fold Increase” value turned out to be 0.09.

For `CCN(CC)CCCC(C)Nc1nc(C)cc(Nc2ccc3nc(C)cc(N)c3c2)n1` (stereo not drawn) [NSC 23766], the “Average LMP1 Fold Increase” value under setting [4] was 0.82. In addition, under setting [5], the “Replicate 1-LMP1 Fold Increase” value was found to be 0.62 and the “Replicate 2-LMP1 Fold Increase” value is given as 1.01.

On to `C/C(=N\NC(=S)N1CCC1)c1ccccn1` [NSC 319726], for which the “Average LMP1 Fold Increase” value under setting [4] stood at 19.87. Moreover, under setting [5], the “Replicate 1-LMP1 Fold Increase” value amounted to 7.26 and the “Replicate 2-LMP1 Fold Increase” value is recorded as 32.48.

On to `CCCC(C)NC(=O)c1ccc(Cl)c(Cl)c1` (stereo not drawn) [NSC 405020], for which the “Average LMP1 Fold Increase” value under setting [4] is 0.39. Moreover, under setting [5], the “Replicate 1-LMP1 Fold Increase” value was found to be 0.50 and the “Replicate 2-LMP1 Fold Increase” value is 0.28.

With `O=c1cc(N2CCOCC2)oc2c1ccc1ccccc12` [NU7026], the “Average LMP1 Fold Increase” value under setting [4] was 0.77. For the same compound, under setting [5], the “Replicate 1-LMP1 Fold Increase” value was 0.47 and the “Replicate 2-LMP1 Fold Increase” value stood at 1.07.

Turning to `Nc1ncnc2c1c(-c1cccc(OCc3ccccc3)c1)cn2C1CC(CN2CCCC2)C1` (stereo not drawn) [NVP-ADW742], under setting [4], the “Average LMP1 Fold Increase” value was found to be 0.40. Under setting [5], the “Replicate 1-LMP1 Fold Increase” value was determined as 0.27 and the “Replicate 2-LMP1 Fold Increase” value is 0.53.

For the compound `COc1ccccc1N1CCN(CC(O)COc2cccc3ccccc23)CC1` (stereo not drawn) [Naftopidil], the fold induction at 2.5 µM by setting is: under setting [1], 1.15; under setting [2], 1.36; under setting [3], 0.95.

As for `O=C1CC[C@@]2(O)[C@H]3Cc4ccc(O)c5c4[C@@]2(CCN3CC2CC2)[C@H]1O5` [Naltrexone HCl], the fold induction at 2.5 µM under setting [1] is 0.27, the fold induction at 2.5 µM under setting [2] was found to be 0.34 and the fold induction at 2.5 µM under setting [3] is 0.19.
